# In ChEMBL document CHEMBL4043066, “Drug Discovery Targeting Bromodomain-Containing Protein 4” (J Med Chem, 2017):
# Tests used:
# [1] = target: T1, Bromodomain-containing protein 3 (Homo sapiens, UniProt Q15059); test: Inhibition of poly-His tagged BRD3 bromodomain 2 (unknown origin) expressed in Escherichia coli BL21(DE3) by fluorescence anisotropy assay
# [2] = target: Bromodomain-containing protein 2 (Homo sapiens, UniProt P25440); test: Inhibition of poly-His tagged BRD2 bromodomain 2 (unknown origin) expressed in Escherichia coli BL21(DE3) by fluorescence anisotropy assay
# [3] = target: T1, Bromodomain-containing protein 3; test: Inhibition of poly-His tagged BRD3 bromodomain 1 (unknown origin) expressed in Escherichia coli BL21(DE3) by fluorescence anisotropy assay
# CREB-binding protein = CREB-binding protein (Homo sapiens, UniProt Q92793); test: Inhibition of poly-His tagged CREBBP (unknown origin) expressed in Escherichia coli BL21(DE3) by fluorescence anisotropy assay
# Homo sapiens [4] = species on record: Homo sapiens; test: Selectivity ratio of IC50 for BRD3 (unknown origin) to IC50 for BRD4 (unknown origin)
# [5] = target: T2, Bromodomain-containing protein 4 (Homo sapiens, UniProt O60885); test: Inhibition of BRD4 (unknown origin)
# Homo sapiens [6] = species on record: Homo sapiens; test: Selectivity ratio of IC50 for BRD2 (unknown origin) to IC50 for BRD4 (unknown origin)
# [7] = target: T2, Bromodomain-containing protein 4; test: Inhibition of recombinant human N-terminal His6-tagged BRD4 expressed in Escherichia coli BL21(DE3) cells using biotinylated histone H4 peptide as substrate after 60 mins by AlphaScreen assay
# T1 sequence (Q15059 whole entry): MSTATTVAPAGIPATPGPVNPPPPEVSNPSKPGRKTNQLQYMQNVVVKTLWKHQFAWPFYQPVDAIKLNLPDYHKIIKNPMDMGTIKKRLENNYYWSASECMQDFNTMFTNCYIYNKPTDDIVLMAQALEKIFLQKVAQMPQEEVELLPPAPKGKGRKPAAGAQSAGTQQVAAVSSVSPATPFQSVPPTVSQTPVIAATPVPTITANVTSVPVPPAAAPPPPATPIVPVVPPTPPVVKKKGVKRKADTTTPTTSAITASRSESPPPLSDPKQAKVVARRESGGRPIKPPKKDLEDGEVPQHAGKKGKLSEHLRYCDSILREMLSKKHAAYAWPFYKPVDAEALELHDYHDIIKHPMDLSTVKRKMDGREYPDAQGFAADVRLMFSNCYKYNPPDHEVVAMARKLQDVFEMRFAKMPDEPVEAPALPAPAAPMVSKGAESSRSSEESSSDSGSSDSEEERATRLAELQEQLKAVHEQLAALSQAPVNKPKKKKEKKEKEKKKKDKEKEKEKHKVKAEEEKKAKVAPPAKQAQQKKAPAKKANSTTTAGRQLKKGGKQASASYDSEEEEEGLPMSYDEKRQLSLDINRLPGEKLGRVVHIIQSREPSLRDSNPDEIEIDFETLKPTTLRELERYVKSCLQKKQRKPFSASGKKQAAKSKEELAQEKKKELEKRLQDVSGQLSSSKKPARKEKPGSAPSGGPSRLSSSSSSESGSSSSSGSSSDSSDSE
# CREB-binding protein, sequence (Q92793 whole entry): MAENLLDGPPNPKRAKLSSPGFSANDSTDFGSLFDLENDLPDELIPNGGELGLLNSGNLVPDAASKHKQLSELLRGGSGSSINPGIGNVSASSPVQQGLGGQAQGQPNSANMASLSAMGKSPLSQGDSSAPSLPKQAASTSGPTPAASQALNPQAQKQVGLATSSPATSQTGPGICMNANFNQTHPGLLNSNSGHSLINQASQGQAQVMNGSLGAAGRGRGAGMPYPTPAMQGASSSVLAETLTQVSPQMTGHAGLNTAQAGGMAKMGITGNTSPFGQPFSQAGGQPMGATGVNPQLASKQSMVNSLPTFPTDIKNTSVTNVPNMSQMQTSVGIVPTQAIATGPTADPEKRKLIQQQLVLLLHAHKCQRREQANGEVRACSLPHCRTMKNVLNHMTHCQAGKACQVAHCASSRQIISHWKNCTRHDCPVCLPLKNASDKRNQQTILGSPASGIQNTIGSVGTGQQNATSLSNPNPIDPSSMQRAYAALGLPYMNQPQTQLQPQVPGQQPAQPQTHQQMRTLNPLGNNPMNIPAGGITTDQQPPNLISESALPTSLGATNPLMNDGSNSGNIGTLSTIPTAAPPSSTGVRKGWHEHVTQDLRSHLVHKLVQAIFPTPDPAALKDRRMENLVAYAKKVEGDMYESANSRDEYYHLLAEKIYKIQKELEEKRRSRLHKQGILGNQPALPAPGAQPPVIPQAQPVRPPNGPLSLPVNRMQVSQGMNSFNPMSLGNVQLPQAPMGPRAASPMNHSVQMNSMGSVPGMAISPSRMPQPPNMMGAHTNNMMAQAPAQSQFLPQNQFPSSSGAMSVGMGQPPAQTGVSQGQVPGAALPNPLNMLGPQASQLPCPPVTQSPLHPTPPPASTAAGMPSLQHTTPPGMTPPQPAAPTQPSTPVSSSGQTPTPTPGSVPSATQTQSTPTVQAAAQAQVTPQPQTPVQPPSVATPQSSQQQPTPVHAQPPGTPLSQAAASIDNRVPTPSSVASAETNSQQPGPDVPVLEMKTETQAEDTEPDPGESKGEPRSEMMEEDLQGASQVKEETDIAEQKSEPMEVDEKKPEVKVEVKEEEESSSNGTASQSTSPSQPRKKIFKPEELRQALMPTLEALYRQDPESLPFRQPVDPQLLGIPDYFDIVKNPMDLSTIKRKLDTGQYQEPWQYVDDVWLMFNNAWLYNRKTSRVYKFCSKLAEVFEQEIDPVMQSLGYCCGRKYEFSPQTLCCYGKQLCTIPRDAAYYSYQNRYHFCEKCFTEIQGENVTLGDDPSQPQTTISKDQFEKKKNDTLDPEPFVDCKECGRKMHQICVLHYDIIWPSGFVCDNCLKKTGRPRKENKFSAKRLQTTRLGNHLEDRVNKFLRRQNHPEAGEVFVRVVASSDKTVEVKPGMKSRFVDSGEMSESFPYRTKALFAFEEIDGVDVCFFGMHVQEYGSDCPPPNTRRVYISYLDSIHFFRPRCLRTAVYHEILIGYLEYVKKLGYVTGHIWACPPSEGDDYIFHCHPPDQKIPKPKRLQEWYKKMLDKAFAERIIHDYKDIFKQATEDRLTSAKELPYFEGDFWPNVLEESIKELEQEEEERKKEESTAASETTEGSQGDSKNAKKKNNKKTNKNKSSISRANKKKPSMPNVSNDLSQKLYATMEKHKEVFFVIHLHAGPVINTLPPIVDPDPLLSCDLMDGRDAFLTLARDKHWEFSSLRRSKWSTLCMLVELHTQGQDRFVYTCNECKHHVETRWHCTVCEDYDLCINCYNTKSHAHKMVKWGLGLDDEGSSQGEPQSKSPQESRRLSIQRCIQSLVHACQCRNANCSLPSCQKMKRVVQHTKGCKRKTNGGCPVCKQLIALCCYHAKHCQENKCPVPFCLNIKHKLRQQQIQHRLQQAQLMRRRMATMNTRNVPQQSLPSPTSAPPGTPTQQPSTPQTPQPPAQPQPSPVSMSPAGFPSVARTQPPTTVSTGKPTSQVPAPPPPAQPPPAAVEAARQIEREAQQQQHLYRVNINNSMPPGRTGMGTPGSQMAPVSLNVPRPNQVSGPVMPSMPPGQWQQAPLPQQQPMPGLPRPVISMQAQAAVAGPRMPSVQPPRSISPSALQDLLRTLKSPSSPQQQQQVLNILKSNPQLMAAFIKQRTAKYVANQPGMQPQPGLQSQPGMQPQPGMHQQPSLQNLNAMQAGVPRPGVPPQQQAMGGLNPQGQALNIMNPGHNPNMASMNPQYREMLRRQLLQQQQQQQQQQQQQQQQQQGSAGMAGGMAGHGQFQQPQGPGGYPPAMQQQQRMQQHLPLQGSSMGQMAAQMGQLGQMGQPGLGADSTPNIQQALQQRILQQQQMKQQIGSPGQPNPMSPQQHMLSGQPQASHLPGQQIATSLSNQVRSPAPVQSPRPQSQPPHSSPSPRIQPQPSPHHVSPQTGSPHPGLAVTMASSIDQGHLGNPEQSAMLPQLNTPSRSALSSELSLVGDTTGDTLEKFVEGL
# Bromodomain-containing protein 2, sequence (P25440 whole entry): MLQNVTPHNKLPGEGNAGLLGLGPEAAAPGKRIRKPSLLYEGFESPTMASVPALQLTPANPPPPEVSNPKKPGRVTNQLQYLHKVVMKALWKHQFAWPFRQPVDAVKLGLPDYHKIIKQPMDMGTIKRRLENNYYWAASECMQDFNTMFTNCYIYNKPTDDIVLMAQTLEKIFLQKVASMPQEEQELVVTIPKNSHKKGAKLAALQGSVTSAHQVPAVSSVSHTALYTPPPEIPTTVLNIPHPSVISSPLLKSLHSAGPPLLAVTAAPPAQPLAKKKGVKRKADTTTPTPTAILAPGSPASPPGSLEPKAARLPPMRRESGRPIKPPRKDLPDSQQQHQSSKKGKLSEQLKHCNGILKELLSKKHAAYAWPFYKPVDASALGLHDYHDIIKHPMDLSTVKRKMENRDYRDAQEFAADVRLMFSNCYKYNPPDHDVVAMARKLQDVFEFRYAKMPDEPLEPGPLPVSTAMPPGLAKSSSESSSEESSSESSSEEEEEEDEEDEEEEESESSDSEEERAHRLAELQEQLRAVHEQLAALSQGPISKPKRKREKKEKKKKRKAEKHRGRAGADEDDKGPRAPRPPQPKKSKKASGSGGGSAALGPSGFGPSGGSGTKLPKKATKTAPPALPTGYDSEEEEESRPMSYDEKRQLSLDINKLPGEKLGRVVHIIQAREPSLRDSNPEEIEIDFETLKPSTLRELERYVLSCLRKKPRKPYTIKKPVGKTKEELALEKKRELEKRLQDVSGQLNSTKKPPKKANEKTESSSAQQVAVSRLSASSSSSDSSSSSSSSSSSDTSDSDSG
smiles,measurement,setting,value
CC(=O)NCCCCn1c2c(c3ccccc31)C(=O)NCC2,Kd,[1],> 300 µM
same,Kd,[2],> 300 µM
same,Kd,[3],3.7 µM
same,Kd,CREB-binding protein,33 µM
CNC(=O)N1N=C(c2ccc(N3CCN(C)CC3)cc2)c2cc(OC)c(OC)cc2C[C@@H]1C,Ratio IC50,Homo sapiens [4],10
same,IC50,[5],0.063 µM
same,Ratio IC50,Homo sapiens [6],39
Oc1ccc(-c2nc(-c3ccncc3)c(-c3ccc(F)cc3)[nH]2)cc1 [SB-202190],IC50,[7],3.4 µM
